Laboratory results from publication PMC5267425, “Identification of small molecule modulators of HIV-1 Tat and Rev protein accumulation” (Retrovirology, 2017).
Where “and” joins values, the source holds several entries; their conditions need not be identical. Equal entries are not always repeated.

System: cellular gene expression in HeLa rtTA HIV∆Mls cells
Details: 9147791-treated cells, replicates

Q: Which ACTN1 expression level does the source give for `Cc1cc(NCc2cccnc2)n2ncc(-c3ccc(Cl)cc3)c2n1` [Compound 791, 3-(4-chlorophenyl)-5-methyl-N-(3-pyridinylmethyl)pyrazolo[1,5-a]pyrimidin-7-amine] here?
A: 70.54 and 65.87

Q: And the ADI1 expression level?
A: 21.28 and 20.50

Q: And the AGPAT2 expression level?
A: 26.74 and 28.83

Q: What about the ALDOC expression level of the same compound?
A: 1.08 and 1.02

Q: What about the ANXA5 expression level of the same compound?
A: 191.66 and 185.16

Q: What about the ANXA6 expression level of the same compound?
A: 69.55 and 59.50

Q: What about the AP2M1 expression level of the same compound?
A: 238.02 and 237.30

Q: What about the APOBEC3B expression level of the same compound?
A: 8.21 and 6.81

Q: What about the ARF1 expression level of the same compound?
A: 151.10 and 145.27

Q: What about the ARHGAP11A expression level of the same compound?
A: 26.24 and 25.64

Q: What about the ARPC5 expression level of the same compound?
A: 71.19 and 65.59

Q: What about the ATP6V0A1 expression level of the same compound?
A: 15.83 and 16.80

Q: And the ATP8B1 expression level?
A: 0.78 and 0.65

Q: What about the B3GNT1 expression level of the same compound?
A: 9.03 and 9.24

Q: And the BAT3 expression level?
A: 82.22 and 79.10

Q: And the BCOR expression level?
A: 21.09 and 21.93

Q: And the BCORL1 expression level?
A: 5.39 and 5.54

Q: And the BHLHB9 expression level?
A: 1.05 and 1.03

Q: What about the BMPR1B expression level of the same compound?
A: 0.73 and 0.81

Q: And the BST2 expression level?
A: 245.44 and 203.71

Q: What about the C1orf115 expression level of the same compound?
A: 6.22 and 6.65

Q: And the C3orf59 expression level?
A: 1.02 and 1.00

Q: And the C5orf13 expression level?
A: 10.12 and 9.25

Q: What about the C5orf15 expression level of the same compound?
A: 25.66 and 24.81

Q: And the C6orf145 expression level?
A: 25.69 and 26.94

Q: What about the C9orf3 expression level of the same compound?
A: 5.07 and 4.02

Q: And the C9orf163 expression level?
A: 0.72 and 0.74

Q: And the C10orf76 expression level?
A: 6.17 and 6.53

Q: What about the C10orf114 expression level of the same compound?
A: 6.12 and 7.21

Q: What about the C14orf147 expression level of the same compound?
A: 24.04 and 21.03

Q: What about the C19orf28 expression level of the same compound?
A: 20.85 and 20.05

Q: And the C20orf29 expression level?
A: 8.83 and 7.98

Q: What about the CALD1 expression level of the same compound?
A: 28.16 and 24.92

Q: What about the CAP2 expression level of the same compound?
A: 6.21 and 6.88

Q: What about the CAPN1 expression level of the same compound?
A: 47.66 and 45.36

Q: And the CASC5 expression level?
A: 8.52 and 8.14

Q: What about the CAV2 expression level of the same compound?
A: 13.23 and 12.84

Q: And the CCDC85C expression level?
A: 13.99 and 13.05

Q: What about the CCDC99 expression level of the same compound?
A: 61.28 and 55.39

Q: What about the CCDC102A expression level of the same compound?
A: 2.18 and 1.83

Q: What about the CCDC150 expression level of the same compound?
A: 3.18 and 3.23

Q: What about the CD276 expression level of the same compound?
A: 44.64 and 46.66

Q: What about the CDC42EP3 expression level of the same compound?
A: 3.11 and 2.92

Q: What about the CDK1 expression level of the same compound?
A: 61.18 and 65.43

Q: What about the CDKL1 expression level of the same compound?
A: 6.48 and 6.73

Q: And the CDKN2C expression level?
A: 30.46 and 26.27

Q: What about the CGN expression level of the same compound?
A: 1.21 and 1.38

Q: What about the CHN1 expression level of the same compound?
A: 6.56 and 6.26

Q: What about the CLPTM1L expression level of the same compound?
A: 137.08 and 134.64

Q: And the CNN2 expression level?
A: 47.78 and 46.33

Q: And the CNNM3 expression level?
A: 10.75 and 11.30

Q: And the COMMD1 expression level?
A: 12.70 and 12.99

Q: And the CRTC3 expression level?
A: 31.32 and 28.75

Q: What about the CSRP2 expression level of the same compound?
A: 30.49 and 33.02

Q: And the CTNND1 expression level?
A: 21.98 and 23.56

Q: And the CTTNBP2 expression level?
A: 2.16 and 2.53

Q: What about the CYTH3 expression level of the same compound?
A: 13.78 and 13.70

Q: And the DAB2 expression level?
A: 15.91 and 16.84

Q: What about the DAG1 expression level of the same compound?
A: 27.42 and 30.65

Q: And the DBF4B expression level?
A: 6.80 and 6.36

Q: And the DCAF6 expression level?
A: 12.78 and 12.38

Q: What about the DDR1 expression level of the same compound?
A: 23.20 and 20.76

Q: What about the DNMT3L expression level of the same compound?
A: 1.04 and 0.90

Q: And the DOCK1 expression level?
A: 11.83 and 12.65

Q: And the DOCK8 expression level?
A: 1.41 and 1.38

Q: And the DUSP1 expression level?
A: 278.63 and 269.45

Q: What about the DUSP8 expression level of the same compound?
A: 0.79 and 0.93

Q: And the ECT2 expression level?
A: 33.55 and 30.42

Q: And the EMP2 expression level?
A: 8.82 and 9.39

Q: What about the EPB41L4A expression level of the same compound?
A: 4.70 and 5.12

Q: What about the ERCC2 expression level of the same compound?
A: 21.00 and 19.80

Q: And the ESAM expression level?
A: 3.07 and 3.33

Q: And the ESYT2 expression level?
A: 32.11 and 32.37

Q: And the F2R expression level?
A: 28.45 and 29.47

Q: What about the FAM13B expression level of the same compound?
A: 9.53 and 8.84

Q: And the FAM83D expression level?
A: 34.40 and 31.73

Q: And the FAM127A expression level?
A: 137.05 and 133.03

Q: What about the FARP1 expression level of the same compound?
A: 32.38 and 34.32

Q: And the FBXL2 expression level?
A: 3.80 and 3.59

Q: And the FDFT1 expression level?
A: 43.70 and 46.85

Q: And the FGFR3 expression level?
A: 5.45 and 6.20

Q: And the FSTL1 expression level?
A: 31.24 and 29.61

Q: What about the FUBP1 expression level of the same compound?
A: 41.68 and 44.21

Q: What about the FZR1 expression level of the same compound?
A: 11.76 and 10.90

Q: What about the GALNT2 expression level of the same compound?
A: 52.29 and 59.07

Q: What about the GATSL1 expression level of the same compound?
A: 3.56 and 3.66

Q: What about the GLCCI1 expression level of the same compound?
A: 5.50 and 5.98

Q: What about the GLI2 expression level of the same compound?
A: 1.61 and 1.91

Q: And the GNG10 expression level?
A: 35.68 and 34.10

Q: What about the GPR176 expression level of the same compound?
A: 6.89 and 6.58

Q: What about the GTF3C1 expression level of the same compound?
A: 29.06 and 29.38

Q: And the H3F3A expression level?
A: 242.14 and 260.31

Q: And the HACL1 expression level?
A: 8.70 and 8.40

Q: And the HDAC1 expression level?
A: 74.08 and 73.05

Q: What about the HEG1 expression level of the same compound?
A: 6.29 and 6.77

Q: What about the HIST1H3B expression level of the same compound?
A: 1.94 and 1.96

Q: What about the HMGB3 expression level of the same compound?
A: 28.50 and 26.71

Q: What about the HMGN3 expression level of the same compound?
A: 74.54 and 69.90

Q: What about the HNRNPH2 expression level of the same compound?
A: 55.22 and 51.55

Q: And the HSPB8 expression level?
A: 24.33 and 26.14

Q: And the ICK expression level?
A: 4.87 and 5.19

Q: What about the ID3 expression level of the same compound?
A: 119.77 and 102.82

Q: What about the IDH2 expression level of the same compound?
A: 17.89 and 18.64

Q: What about the IDI1 expression level of the same compound?
A: 13.51 and 16.55

Q: What about the IKBIP expression level of the same compound?
A: 8.02 and 8.05

Q: What about the INCENP expression level of the same compound?
A: 24.44 and 25.00

Q: What about the INO80C expression level of the same compound?
A: 1.90 and 1.87

Q: What about the JUB expression level of the same compound?
A: 13.13 and 12.45

Q: And the KANK2 expression level?
A: 20.68 and 20.72

Q: And the KHDRBS1 expression level?
A: 80.26 and 74.92

Q: What about the KIF3B expression level of the same compound?
A: 14.85 and 14.03

Q: And the KIF5C expression level?
A: 0.60 and 0.55

Q: What about the KIF11 expression level of the same compound?
A: 24.10 and 21.47

Q: What about the KIF18B expression level of the same compound?
A: 12.16 and 12.54

Q: And the KIF20B expression level?
A: 12.24 and 11.00

Q: And the KIFC1 expression level?
A: 47.71 and 45.30

Q: What about the KITLG expression level of the same compound?
A: 11.50 and 12.57

Q: And the KLF9 expression level?
A: 12.26 and 10.78

Q: And the KLHDC3 expression level?
A: 56.38 and 53.87

Q: And the KPNA2 expression level?
A: 179.32 and 162.46

Q: And the LAPTM4B expression level?
A: 71.83 and 68.84

Q: And the LMO7 expression level?
A: 19.87 and 20.69

Q: And the LRRC16A expression level?
A: 6.80 and 7.88

Q: And the MAML2 expression level?
A: 2.44 and 2.29

Q: And the MANF expression level?
A: 42.22 and 45.27

Q: And the MAP3K14 expression level?
A: 8.59 and 8.30
